Source: PubChem BioAssay (NCI)
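Step 1: Grow cells in 96-well plates. Step 2: Expose to compound for 48 hours at 5 concentrations. Step 3: Interpolate endpoints linearly; if unreached, use highest concentration. Abbreviation: GI50, concentration required for 50% inhibition of growth. TGI: concentration producing complete growth inhibition.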

Key:
Test in all cases: DTP human tumour cell line panel, 48 h
[1] = test system: HS 578T breast
[2] = test system: SN12C renal
[3] = test system: HCC-2998 colon
[4] = test system: SK-MEL-2 melanoma
[5] = test system: HCT-116 colon
[6] = test system: HCT-15 colon
[7] = test system: HOP-62 NSCLC
[8] = test system: CAKI-1 renal
[9] = test system: HL-60(TB) leukemia
[10] = test system: M14 melanoma
[11] = test system: UO-31 renal
[12] = test system: EKVX NSCLC
[13] = test system: MDA-MB-231 breast
[14] = test system: T-47D breast
[15] = test system: MALME-3M melanoma
[16] = test system: K-562 leukemia
[17] = test system: NCI-H226 lung
[18] = test system: SNB-75 CNS
[19] = test system: SF-295 CNS
[20] = test system: SK-MEL-5 melanoma
[21] = test system: NCI/ADR-RES ovarian
[22] = test system: OVCAR-5 ovarian
[23] = test system: A498 renal
[24] = test system: DU-145 prostate
[25] = test system: OVCAR-8 ovarian
[26] = test system: RXF 393 renal
[27] = test system: MCF7 breast
[28] = test system: NCI-H460 lung
[29] = test system: BT-549 breast
[30] = test system: SK-OV-3 ovarian
[31] = test system: IGROV1 ovarian
[32] = test system: UACC-257 melanoma
[33] = test system: KM12 colon
[34] = test system: MDA-MB-435
[35] = test system: CCRF-CEM leukemia
[36] = test system: SW-620 colon
[37] = test system: A549 NSCLC
[38] = test system: UACC-62 melanoma
[39] = test system: NCI-H23 lung
[40] = test system: NCI-H522 lung
[41] = test system: TK-10 renal
[42] = test system: MOLT-4 leukemia
[43] = test system: PC-3 prostate
[44] = test system: COLO 205 colon
[45] = test system: U251 CNS
[46] = test system: LOX IMVI melanoma
[47] = test system: ACHN renal
[48] = test system: OVCAR-3 ovarian
[49] = test system: RPMI-8226 leukemia
[50] = test system: OVCAR-4 ovarian
[51] = test system: HOP-92 NSCLC
[52] = test system: SF-268 CNS
[53] = test system: 786-0 renal
[54] = test system: HT29 colon
[55] = test system: SK-MEL-28 melanoma
[56] = test system: SNB-19 CNS
[57] = test system: SF-539 CNS
[58] = test system: SR leukemia

## CC/C=C\C[C@H](O)C/C=C1/C(=O)C=C[C@@H]1C/C=C\CCCC(=O)NC
[1]
  GI50: 5.24 µM
  TGI: 55.2 µM
[2]
  GI50: 2.33 µM
  TGI: 8.5 µM
[3]
  GI50: 1.82 µM
  TGI: 3.35 µM
[4]
  GI50: 2.24 µM
  TGI: 6.35 µM
[5]
  GI50: 0.612 µM
  TGI: 2.04 µM
[6]
  GI50: 1.52 µM
  TGI: 5.09 µM
[7]
  GI50: 2.3 µM
  TGI: 5.33 µM
[8]
  GI50: 1.38 µM
  TGI: 4.08 µM
[9]
  GI50: 1.7 µM
  TGI: 7.24 µM
[10]
  GI50: 1.76 µM
  TGI: 4.75 µM
[11]
  GI50: 1.52 µM
  TGI: 3.35 µM
[12]
  GI50: 3.71 µM
  TGI: 15.2 µM
[13]
  GI50: 4.24 µM
  TGI: 14.1 µM
[14]
  GI50: 2.32 µM
  TGI: 12.5 µM
[15]
  GI50: 1.94 µM
  TGI: 4.65 µM
[16]
  GI50: 1.7 µM
  TGI: > 100 µM
[17]
  GI50: 2.15 µM
  TGI: 4.95 µM
[18]
  GI50: 10.8 µM
  TGI: 22.7 µM
[19]
  GI50: 2.44 µM
  TGI: 6.08 µM
[20]
  GI50: 1.62 µM
  TGI: 2.98 µM
[21]
  GI50: 2.5 µM
  TGI: 10.5 µM
[22]
  GI50: 2 µM
  TGI: 4.27 µM
[23]
  GI50: 2.34 µM
  TGI: 5.12 µM
[24]
  GI50: 2.73 µM
  TGI: 12.7 µM
[25]
  GI50: 2.4 µM
  TGI: 10.2 µM
[26]
  GI50: 1.67 µM
  TGI: 3.17 µM
[27]
  GI50: 0.455 µM
  TGI: 10.7 µM
[28]
  GI50: 1.63 µM
  TGI: 4.15 µM
[29]
  GI50: 1.91 µM
  TGI: 4.99 µM
[30]
  GI50: 2.9 µM
  TGI: 8.54 µM
[31]
  GI50: 2.93 µM
  TGI: 10.7 µM
[32]
  GI50: 2.08 µM
  TGI: 5.32 µM
[33]
  GI50: 1.36 µM
  TGI: 2.79 µM
[34]
  GI50: 1.73 µM
  TGI: 6.64 µM
[35]
  GI50: 1.47 µM
  TGI: 8.13 µM
[36]
  GI50: 1.28 µM
  TGI: 4.63 µM
[37]
  GI50: 2.55 µM
  TGI: 6.81 µM
[38]
  GI50: 1.37 µM
  TGI: 3.5 µM
[39]
  GI50: 1.82 µM
  TGI: 4.22 µM
[40]
  GI50: 1.54 µM
  TGI: 3.77 µM
[41]
  GI50: 2.85 µM
  TGI: 6.49 µM
[42]
  GI50: 2.4 µM
  TGI: 11.3 µM
[43]
  GI50: 1.95 µM
  TGI: 4.79 µM
[44]
  GI50: 1.71 µM
  TGI: 3.93 µM
[45]
  GI50: 1.3 µM
  TGI: 4.26 µM
[46]
  GI50: 0.317 µM
  TGI: 1.43 µM
[47]
  GI50: 1.56 µM
  TGI: 3.21 µM
[48]
  GI50: 1.2 µM
  TGI: 4.11 µM
[49]
  GI50: 0.957 µM
  TGI: 6 µM
[50]
  GI50: 3.04 µM
  TGI: 19.5 µM
[51]
  GI50: 3.3 µM
  TGI: 6.66 µM
[52]
  GI50: 2.94 µM
  TGI: 12.9 µM
[53]
  GI50: 1.81 µM
  TGI: 3.6 µM
[54]
  GI50: 1.52 µM
  TGI: 3.25 µM
[55]
  GI50: 1.69 µM
  TGI: 3.6 µM
[56]
  GI50: 6.91 µM
  TGI: 20.9 µM

## C[C@]12CCc3sc(-c4cccc(F)c4)nc3C1=CC[C@@H]1[C@@H]2CC[C@]2(C)C(=O)CC[C@@H]12
[1]
  GI50: 3.86 µM
  TGI: > 100 µM
[2]
  GI50: 3.01 µM
  TGI: > 100 µM
[3]
  GI50: 3.19 µM
  TGI: > 100 µM
[4]
  GI50: 2.74 µM
  TGI: 10.7 µM
[5]
  GI50: 1.73 µM
  TGI: 3.56 µM
[6]
  GI50: 1.56 µM
  TGI: 4.17 µM
[7]
  GI50: 3.1 µM
  TGI: 11.8 µM
[8]
  GI50: 1.87 µM
  TGI: 3.76 µM
[9]
  GI50: 2 µM
  TGI: 5.35 µM
[10]
  GI50: 6.62 µM
  TGI: > 100 µM
[11]
  GI50: 1.61 µM
  TGI: 2.98 µM
[12]
  GI50: 4.79 µM
  TGI: 87.2 µM
[13]
  GI50: 2.6 µM
  TGI: 7.34 µM
[14]
  GI50: 2 µM
  TGI: 5.24 µM
[15]
  GI50: 1.8 µM
  TGI: 4.13 µM
[16]
  GI50: 1.82 µM
  TGI: 9.08 µM
[18]
  GI50: 3.43 µM
  TGI: > 100 µM
[19]
  GI50: 1.59 µM
  TGI: 4.91 µM
[20]
  GI50: 4.05 µM
  TGI: 16.9 µM
[21]
  GI50: 3.41 µM
  TGI: 57.5 µM
[22]
  GI50: 2.68 µM
  TGI: 18.5 µM
[23]
  GI50: 3.2 µM
  TGI: 17.9 µM
[57]
  GI50: 1.04 µM
  TGI: 2.48 µM
[25]
  GI50: 3.45 µM
  TGI: > 100 µM
[26]
  GI50: 1.41 µM
  TGI: 2.94 µM
[27]
  GI50: 1.78 µM
  TGI: 4.26 µM
[28]
  GI50: 2.78 µM
  TGI: 8.27 µM
[29]
  GI50: 2.2 µM
  TGI: 8.06 µM
[30]
  GI50: 2.91 µM
  TGI: 9.13 µM
[31]
  GI50: 2.09 µM
  TGI: 4.88 µM
[32]
  GI50: 6.12 µM
  TGI: > 100 µM
[33]
  GI50: 3.34 µM
  TGI: 17.6 µM
[34]
  GI50: 2.97 µM
  TGI: > 100 µM
[35]
  GI50: 2.45 µM
  TGI: 9.58 µM
[37]
  GI50: 3.95 µM
  TGI: 31.5 µM
[58]
  GI50: 2.62 µM
  TGI: 10.5 µM
[38]
  GI50: 1.9 µM
  TGI: 5.7 µM
[39]
  GI50: 3.54 µM
  TGI: 33.5 µM
[40]
  GI50: 2.4 µM
  TGI: 6.35 µM
[41]
  GI50: 2.77 µM
  TGI: 8.29 µM
[42]
  GI50: 1.69 µM
  TGI: 7.89 µM
[43]
  GI50: 3.08 µM
  TGI: 14.2 µM
[44]
  GI50: 2.42 µM
  TGI: 5.46 µM
[45]
  GI50: 2 µM
  TGI: 13.6 µM
[46]
  GI50: 1.74 µM
  TGI: 3.36 µM
[47]
  GI50: 1.64 µM
  TGI: 3.01 µM
[48]
  GI50: 1.92 µM
  TGI: 3.79 µM
[49]
  GI50: 1.91 µM
  TGI: 5.65 µM
[50]
  GI50: 5.51 µM
  TGI: > 100 µM
[51]
  GI50: 2.44 µM
  TGI: 5.63 µM
[52]
  GI50: 3.15 µM
  TGI: 18.9 µM
[54]
  GI50: 2.69 µM
  TGI: > 100 µM
[55]
  GI50: 1.53 µM
  TGI: 4.07 µM
[56]
  GI50: 4.79 µM
  TGI: > 100 µM
